17 compounds from US20260355196A1, “INHIBITORS AND DEGRADERS OF PIP4K PROTEIN” (Larkspur Biosciences, Inc., priority 2023, published 2026) can be followed below.

One experiment addresses T1, PIP4K2C (Homo sapiens, UniProt Q8TBX8).
T1 sequence (Q8TBX8 1-421): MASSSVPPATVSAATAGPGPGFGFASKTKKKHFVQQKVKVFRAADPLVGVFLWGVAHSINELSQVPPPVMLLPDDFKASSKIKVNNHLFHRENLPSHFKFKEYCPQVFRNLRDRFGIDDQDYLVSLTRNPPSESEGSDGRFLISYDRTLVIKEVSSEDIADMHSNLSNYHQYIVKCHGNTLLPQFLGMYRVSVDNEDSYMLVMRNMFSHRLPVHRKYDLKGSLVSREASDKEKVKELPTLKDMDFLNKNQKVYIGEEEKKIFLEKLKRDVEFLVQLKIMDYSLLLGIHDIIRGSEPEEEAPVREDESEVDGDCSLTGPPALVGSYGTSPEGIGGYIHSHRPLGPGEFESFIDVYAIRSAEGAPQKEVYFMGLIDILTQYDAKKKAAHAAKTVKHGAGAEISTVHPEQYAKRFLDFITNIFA
Nature of the experiment: HiBiT PIP4K2C degradation assay in MOLT-4 cells (endogenous PIP4K2C C-terminally tagged with HiBiT). The settings on record: 6 hours of incubation time, rather than 24 hours; MOLT-4, top concentration 10 micromolar; read-out: HiBIT-degradation MOLT4 PIP4k2C DC50 (6 hours, marked *). It counts as cell-based. Also on record: untagged in primary human PBMCs and monocyte-derived dendritic cells. A digest of the protocol:
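In a CRISPR-engineered MOLT-4 clone carrying HiBiT-tagged PIP4K2C, degradation was assessed after 24 or 6 hours of dosing (10 micromolar top, 3-fold steps). Luminescence from lytic HiBiT detection was fitted to obtain DC50.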
(With HiBiT, luminescence reflects the tagged protein that the partner subunit can reach.)
The term DC50 denotes the concentration at which degradation of the target reaches its halfway point. As to `O=C1CCC(Nc2ccc(N3CCN(CC4(F)CCN(C(=O)[C@H]5CC[C@H](Nc6ncc(F)c(-c7cccc(-c8ccccc8)c7)n6)CC5)CC4)CC3)c(F)c2)C(=O)N1` (stereo partly drawn) [Compound 484, trans-3-[3-fluoro-4-[4-[[4-fluoro-1-[4-[[5-fluoro-4-(3-phenylphenyl)pyrimidin-2-yl]amino]cyclohexanecarbonyl]-4-piperidyl]methyl]piperazin-1-yl]anilino]piperidine-2,6-dione], the DC50 is below 500 nM.

Turning to `O=C1CCC(Nc2ccc(N3CCC(N4CCC(C(=O)N[C@H]5CC[C@H](Nc6ncc(F)c(-c7cccc(C8CC8)c7)n6)CC5)CC4)C(F)(F)C3)c(F)c2)C(=O)N1` (stereo partly drawn) [Compound 497, trans-N-(4-((4-(3-cyclopropylphenyl)-5-fluoropyrimidin-2-yl)amino)cyclohexyl)-1′-(4-((2,6-dioxopiperidin-3-yl)amino)-2-fluorophenyl)-3′,3′-difluoro-[1,4′-bipiperidine]-4-carboxamide], the DC50 was below 500 nM.

As to `O=C1CCC(Nc2ccc(N3CCN([C@H]4CC[C@H](NC(=O)[C@H]5CC[C@H](Nc6ncc(F)c(-c7cccc(C8CC8)c7)n6)CC5)CC4)CC3)c(F)c2)C(=O)N1` (stereo partly drawn) [Compound 557, trans-(1r,4R)-4-((4-(3-cyclopropylphenyl)-5-fluoropyrimidin-2-yl)amino)-N-((1r,4R)-4-(4-(4-((2,6-dioxopiperidin-3-yl)amino)-2-fluorophenyl)piperazin-1-yl)cyclohexyl)cyclohexane-1-carboxamide], the DC50 is below 500 nM.

As for `Cn1nc(N2CCC(=O)NC2=O)c2ccc(C3CCN(CC4CCN(C(=O)O[C@H]5CC[C@H](Nc6ncc(F)c(-c7cccc(-c8ccccc8)c7)n6)CC5)CC4)CC3)cc21` [Compound 636, trans-4-((4-([1,1′-biphenyl]-3-yl)-5-fluoropyrimidin-2-yl)amino)cyclohexyl 4-((4-(3-(2,4-dioxotetrahydropyrimidin-1 (2H)-yl)-1-methyl-1H-indazol-6-yl)piperidin-1-yl)methyl)piperidine-1-carboxylate], the DC50 was below 500 nM.

Consider `O=C1CCC(Nc2ccc(C3CCN([C@H]4CC[C@H](C(=O)N[C@H]5CC[C@H](Nc6ncc(F)c(-c7cccc(C(=O)N8CC[C@H](O)C8)c7)n6)CC5)CC4)CC3)c(F)c2)C(=O)N1` (stereo partly drawn) [Compound 511, trans-4-(4-(4-((2,6-dioxopiperidin-3-yl)amino)-2-fluorophenyl)piperidin-1-yl)-N-(trans-4-((5-fluoro-4-(3-((S)-3-hydroxypyrrolidine-1-carbonyl)phenyl)pyrimidin-2-yl)amino)cyclohexyl)cyclohexane-1-carboxamide], for which the DC50 is below 500 nM.

Turning to `O=C1CCC(Nc2ccc(C3CCN(CC4CCN(C(=O)[C@H]5CC[C@H](Nc6ncc(F)c(-c7cccc(N8CCCCC8=O)c7)n6)CC5)CC4)CC3)c(F)c2)C(=O)N1` (stereo partly drawn) [Compound 394, trans-3-((3-fluoro-4-(1-((1-(4-((5-fluoro-4-(3-(2-oxopiperidin-1-yl)phenyl)pyrimidin-2-yl)amino)cyclohexane-1-carbonyl)piperidin-4-yl)methyl)piperidin-4-yl)phenyl)amino)piperidine-2,6-dione], the DC50 was below 500 nM.

For the compound `O=C1CC[C@H](Nc2ccc(N3CCN([C@H]4CC[C@H](C(=O)N[C@H]5CC[C@H](Nc6ncc(F)c(-c7cccc(-c8ccc[nH]c8=O)c7)n6)CC5)CC4)CC3)c(F)c2)C(=O)N1` [Compound 517, trans-4-(4-(4-(((S)-2,6-dioxopiperidin-3-yl)amino)-2-fluorophenyl)piperazin-1-yl)-N-((trans)-4-((5-fluoro-4-(3-(2-oxo-1,2-dihydropyridin-3-yl)phenyl)pyrimidin-2-yl)amino)cyclohexyl)cyclohexane-1-carboxamide], the DC50 was below 500 nM.

Consider `O=C1CCC(Nc2ccc(N3CCC(N4CCC(C(=O)N[C@H]5CC[C@H](Nc6ncc(F)c(-c7cccc(N8CCOCC8)c7)n6)CC5)CC4)CC3)c(F)c2)C(=O)N1` (stereo partly drawn) [Compound 645, trans-1′-(4-((2,6-dioxopiperidin-3-yl)amino)-2-fluorophenyl)-N-(4-((5-fluoro-4-(3-morpholinophenyl)pyrimidin-2-yl)amino)cyclohexyl)-[1,4′-bipiperidine]-4-carboxamide], for which the DC50 is below 500 nM.

Consider `O=C1CCC(Nc2ccc(C3CCN(CC4CCN(C(=O)N5CCC(Nc6ncc(F)c(-c7cccc(-n8ccccc8=O)c7)n6)CC5)CC4)CC3)c(F)c2)C(=O)N1` (centres unmarked) [Compound 465, 3-((3-fluoro-4-(1-((1-(4-((5-fluoro-4-(3-(2-oxopyridin-1 (2H)-yl)phenyl)pyrimidin-2-yl)amino)piperidine-1-carbonyl)piperidin-4-yl)methyl)piperidin-4-yl)phenyl)amino)piperidine-2,6-dione], for which the DC50 is below 500 nM.

The same experiment, now with this note: 24 hours incubation, MOLT-4, top concentration 10 micromolar; read-out: HiBIT-degradation MOLT4 PIP4k2C 24 hours DC50.
Consider `O=C1CCC(n2c(=O)oc3cc(C4CCN(CC5CCN(CC(=O)N[C@H]6CC[C@H](Nc7ncc(Cl)c(-c8cccc(-n9ccccc9=O)c8)n7)CC6)CC5)CC4)ccc32)C(=O)N1` (stereo partly drawn) [Compound 369, trans-N-(4-((5-chloro-4-(3-(2-oxopyridin-1(2H)-yl)phenyl)pyrimidin-2-yl)amino)cyclohexyl)-2-(4-((4-(3-(2,6-dioxopiperidin-3-yl)-2-oxo-2,3-dihydrobenzo[d]oxazol-6-yl)piperidin-1-yl)methyl)piperidin-1-yl)acetamide], for which the DC50 was below 500 nM.

For the compound `O=C1CCC(N2Cc3cc(C4CCN(C5CCN(CC(=O)N6CCC[C@H](Nc7ncc(Cl)c(-c8cccc(-c9ccccc9)c8)n7)C6)CC5)CC4)ccc3C2=O)C(=O)N1` (stereo partly drawn) [Compound 70, 3-(5-(1′-(2-((S)-3-((4-([1,1′-biphenyl]-3-yl)-5-chloropyrimidin-2-yl)amino)piperidin-1-yl)-2-oxoethyl)-[1,4′-bipiperidin]-4-yl)-1-oxoisoindolin-2-yl)piperidine-2,6-dione], the DC50 was below 500 nM.

As for `Cn1c(=O)n(C2CCC(=O)NC2=O)c2ccc(C3CCN(CC4CCN(CC(=O)N[C@H]5CC[C@H](Nc6ncc(Cl)c(-c7cccc(-c8ccc(F)cc8)c7)n6)CC5)CC4)CC3)cc21` (stereo partly drawn) [Compound 276, trans-N-(4-((5-chloro-4-(4′-fluoro-[1,1′-biphenyl]-3-yl)pyrimidin-2-yl)amino)cyclohexyl)-2-(4-((4-(1-(2,6-dioxopiperidin-3-yl)-3-methyl-2-oxo-2,3-dihydro-1H-benzo[d]imidazol-5-yl)piperidin-1-yl)methyl)piperidin-1-yl)acetamide], the DC50 was below 500 nM.

With `O=C1CCC(Nc2ccc(C3CCN(CC4CCN(CC(=O)N[C@H]5CC[C@H](Nc6ncc(F)c(-c7cccc(-n8ccccc8=O)c7)n6)CC5)CC4)CC3)c(F)c2)C(=O)N1` (stereo partly drawn) [Compound 313, trans-2-(4-((4-(4-((2,6-dioxopiperidin-3-yl)amino)-2-fluorophenyl)piperidin-1-yl)methyl)piperidin-1-yl)-N-(4-((5-fluoro-4-(3-(2-oxopyridin-1(2H)-yl)phenyl)pyrimidin-2-yl)amino)cyclohexyl)acetamide], the DC50 is below 500 nM.

`Cn1c(=O)n(C2CCC(=O)NC2=O)c2ccc(C3CCN(CC(=O)N4CCN(C(=O)[C@H]5CCC[C@@H](Nc6ncc(Cl)c(-c7cccc(-c8ccccc8)c7)n6)C5)CC4)CC3)cc21` (relative stereo) [Compound 51, cis-3-(5-(1-(2-(4-(3-((4-([1,1′-biphenyl]-3-yl)-5-chloropyrimidin-2-yl)amino)cyclohexane-1-carbonyl)piperazin-1-yl)-2-oxoethyl)piperidin-4-yl)-3-methyl-2-oxo-2,3-dihydro-1H-benzo[d]imidazol-1-yl)piperidine-2,6-dione]: the DC50 is below 500 nM.

On to `O=C1CCC(n2c(=O)oc3cc(N4CCN(CC5CCN(CC(=O)N6CCC(Nc7ncc(F)c(-c8cccc(-n9ccccc9=O)c8)n7)CC6)CC5)CC4)ccc32)C(=O)N1` (centres unmarked) [Compound 340, 3-(6-(4-((1-(2-(4-((5-fluoro-4-(3-(2-oxopyridin-1(2H)-yl)phenyl)pyrimidin-2-yl)amino)piperidin-1-yl)-2-oxoethyl)piperidin-4-yl)methyl)piperazin-1-yl)-2-oxobenzo[d]oxazol-3 (2H)-yl)piperidine-2,6-dione], for which the DC50 is below 500 nM.

With `Cn1c(=O)n(C2CCC(=O)NC2=O)c2ccc(C3CCN(CC4CCN(CC(=O)N5CCC(Nc6ncc(F)c(-c7cccc(-c8ccc(F)cc8)c7)n6)CC5)CC4)CC3)cc21` (centres unmarked) [Compound 288, 3-(5-(1-((1-(2-(4-((5-fluoro-4-(4′-fluoro-[1,1′-biphenyl]-3-yl)pyrimidin-2-yl)amino)piperidin-1-yl)-2-oxoethyl)piperidin-4-yl)methyl)piperidin-4-yl)-3-methyl-2-oxo-2,3-dihydro-1H-benzo[d]imidazol-1-yl)piperidine-2,6-dione], the DC50 is below 500 nM.

For the compound `Cc1ccc(=O)n(-c2cccc(-c3nc(N[C@H]4CCC[C@@H](C(=O)N5CCC(CCN6CCC(c7ccc8c(c7)oc(=O)n8C7CCC(=O)NC7=O)CC6)CC5)C4)ncc3F)c2)c1` (stereo partly drawn) [Compound 354, 3-(6-(1-(2-(1-((1R,3S)-3-((5-fluoro-4-(3-(5-methyl-2-oxopyridin-1(2H)-yl)phenyl)pyrimidin-2-yl)amino)cyclohexane-1-carbonyl)piperidin-4-yl)ethyl)piperidin-4-yl)-2-oxobenzo[d]oxazol-3 (2H)-yl)piperidine-2,6-dione], the DC50 was below 500 nM.
